Laboratory results published in patent US20240122932A1, “Methods of Treating B-Cell Malignancy Using Bcl-2 Inhibitor” (BeiGene Switzerland GmbH, priority 2021, published 2024).

System: patients with R/R B-cell malignancies
Test: phase 1 clinical study: safety, tolerability, DLT, MTD
Assay type: in vivo
Protocol: A phase 1 study (dose escalation and safety expansion) to determine safety, tolerability, maximum tolerated dose ([…]), and recommended phase 2 dose (RP2D) of Compound 1 in patients with R/R B-cell malignancies was conducted. (Table 6-1A).
Dose-escalation (Part 1) occurs in independent cohorts categorized by patient disease type. These cohorts are continued until a recommended Phase 2 dose (RP2D) is identified, which is then used in corresponding expansion cohorts (Part 2).
Part 1 Monotherapy Ramp-Up Schedule and Dose Finding • 1) Cohort 1A: Cohort 1A consists of patients with relapsed/refractory B-cell non-Hodgkin lymphoma (R/R B-cell NHL) excluding mantle cell lymphoma (MCL). These patients are expected to be at low risk of tumor lysis syndrome (low TLS risk), and are treated with a short ramp-up schedule reaching target dose on Day 3. Patients in this cohort receive escalating doses of Compound 1 monotherapy: 40 mg, 80 mg, 160 mg, 320 mg, and 640 mg (unless adjusted by Safety Monitoring Committee [SMC] recommendation). • 2) Cohort 1B is opened, when ≥1 tolerable dose level of Cohort 1A was determined. It consists of patients with low-tumor-burden R/R CLL/SLL. This cohort pursues dose finding, including evaluation of both ramp-up schedule and target dose. Patients increase the ramp-up dose weekly until the target dose for the cohort is reached. The ramp-up steps is 1 mg, 2 mg, 5 mg, 10 mg, 20 mg, 40 mg, 80 mg, 160 mg, 320 mg, and 640 mg (unless adjusted by SMC recommendation). […]. • 3) Cohort 1C: This Cohort consists of patients with high-tumor-burden R/R chronic lymphocytic leukemia/small lymphocytic lymphoma (R/R CLL/SLL). This cohort will not be dosed until the RP2D for Cohort 1B is established. The objective of this cohort is to confirm, in patients with high-tumor-burden CLL/SLL, the safety of the monotherapy ramp-up schedule and RP2D established in patients with low-tumor-burden CLL/SLL. • 4) Cohort 1D: This Cohort consists of patients with R/R MCL. This cohort will not be dosed until the RP2D for Cohort 1B is established. The objective of this cohort is to confirm, in patients with R/R MCL, the safety of the monotherapy ramp-up schedule and RP2D established in patients with low tumor-burden CLL/SLL. • Cohort 1D′: This Cohort consists of patients with R/R MCL. And, the target dosage are 160 and 320 mg. • 5) Cohort 1E: This Cohort consists of patients with R/R waldenstrom macroglobulinemia (R/R WM). This cohort will not be dosed until the RP2D for Cohort 1B is established. The objective of this cohort is to confirm, in patients with R/R WM, the safety of the monotherapy ramp-up schedule and RP2D established in patients with low tumor-burden CLL/SLL.
All dose cohorts would be reviewed by a safety monitoring committee (SMC) before opening subsequent dose levels or declaring an MTD/RP2D.
The study also includes dose escalation and expansion cohorts for the combination of Compound 1 and Bruton tyrosine kinase (BTK) inhibitor Zanubrutinib in patients with selected B-cell malignancy, such as CLL/SLL and mantle cell lymphoma (MCL). (Table 6-2A). Patients in the combination therapy cohorts receive Zanubrutinib 320 mg daily (160 mg twice a day [BID] or 320 mg once a day [QD]) beginning 8-12 weeks before Compound 1 is introduced. And, the corresponding dose-escalation and expansion are conducted in Part 3 and Part 4):
Dose finding is pursued in Patients with R/R CLL/SLL or R/R MCL who are Bel-2-inhibitor naive and have not progressed on a BTK inhibitor, including evaluation of ramp-up schedule and target dose of Compound 1 when used in combination with Zanubrutinib. The Compound 1 dose vary but the Zanubrutinib dose is fixed at 320 mg/day (160 mg twice daily or 320 mg once daily). The ramp-up dose increases weekly until the target dose for the cohort is reached. […]

[1] = 36 patients, monotherapy N = 25, combination therapy N = 11
[2] = 58 patients, monotherapy n = 32, combination n = 26

CC(C)c1ccccc1[C@@H]1CCCN1C1CC2(CCN(c3ccc(C(=O)NS(=O)(=O)c4ccc(NCC5CCC(C)(O)CC5)c([N+](=O)[O-])c4)c(Oc4cnc5[nH]ccc5c4)c3)CC2)C1 (stereo partly drawn) [Compound 1, 2-((1H-pyrrolo[2,3-b]pyridin-5-yl)oxy)-N-((4-((((1r,4r)-4-hydroxy-4-methylcyclohexyl)methyl)amino)-3-nitrophenyl)sulfonyl)-4-(2-((S)-2-(2-isopropylphenyl)pyrrolidin-1-yl)-7-azaspiro[3.5]nonan-7-yl)benzamide]
AEs, n (%): AEs leading to discontinuation of Compound 1 [1]: 1 n (%) | AEs, n (%): AEs leading to dose reduction of Compound 1 [1]: 0 n (%) | AEs, n (%): AEs leading to hold of Compound 1 [1]: 4 n (%) | AEs, n (%): Grade ≥3 AEs [1]: 11 n (%) | AEs, n (%): Serious AEs [1]: 9 n (%) | AEs, n (%): Total [1]: 22 n (%) | AEs, n (%): Leading to death (36 patients, monotherapy N = 25, combination therapy N = 11, neither death related to study drug): 2 n (%) | Diarrhea, All Grade, n (%) [2]: 8 n (%) | Diarrhea, Grade ≥3, n (%) [2]: 0 n (%) | Fatigue, All Grade, n (%) [2]: 8 n (%) | Fatigue, Grade ≥3, n (%) [2]: 0 n (%) | Headache, All Grade, n (%) [2]: 5 n (%) | Headache, Grade ≥3, n (%) [2]: 0 n (%) | Nausea, All Grade, n (%) [2]: 12 n (%) | Nausea, Grade ≥3, n (%) [2]: 0 n (%) | DLTs (Cohort 1A NHL, monotherapy, 40-mg (n=3), 80-mg (n=4) and 320-mg (n=3) dose cohorts): no disease-limiting toxicities (DLTs) | DLTs (Cohort 1A NHL, monotherapy, 160-mg (n=3+1) dose cohort): one DLT of grade 3 febrile neutropenia | MTD (Cohort 1A NHL, monotherapy, all dose cohorts completed): no MTD reached through 640 mg | DLTs (Cohort 1B R/R CLL, monotherapy, 80 mg target dose level (n=4)): one DLT of grade 4 neutropenia | patients with grade ≥3 neutropenia (monotherapy): 5 patients | patients with neutropenia (monotherapy): 6 patients | Abdominal Pain, All Grade, n (%) (monotherapy n = 32): 4 n (%) | Abdominal Pain, Grade ≥3, n (%) (monotherapy n = 32): 2 n (%) | Constipation, All Grade, n (%) (monotherapy n = 32): 5 n (%) | Constipation, Grade ≥3, n (%) (monotherapy n = 32): 0 n (%) | Dizziness, All Grade, n (%) (monotherapy n = 32): 5 n (%) | Dizziness, Grade ≥3, n (%) (monotherapy n = 32): 0 n (%) | Fall, All Grade, n (%) (monotherapy n = 32): 5 n (%) | Fall, Grade ≥3, n (%) (monotherapy n = 32): 2 n (%) | Neutropenia, All Grade, n (%) (monotherapy n = 32): 8 n (%) | Neutropenia, Grade ≥3, n (%) (monotherapy n = 32): 6 n (%) | Oedema peripheral, All Grade, n (%) (monotherapy n = 32): 4 n (%) | Oedema peripheral, Grade ≥3, n (%) (monotherapy n = 32): 0 n (%) | Pyrexia, All Grade, n (%) (monotherapy n = 32): 6 n (%) | Pyrexia, Grade ≥3, n (%) (monotherapy n = 32): 1 n (%) | Thrombocytopenia, All Grade, n (%) (monotherapy n = 32): 4 n (%) | Thrombocytopenia, Grade ≥3, n (%) (monotherapy n = 32): 2 n (%) | Urinary tract infection, All Grade, n (%) (monotherapy n = 32): 4 n (%) | Urinary tract infection, Grade ≥3, n (%) (monotherapy n = 32): 0 n (%) | laboratory TLS (monotherapy, one high-risk patient with CLL, resolved with no intervention): < 2% | tolerable dose (result of 58 patients, monotherapy or in combination with Zanubrutinib, MTD not yet reached): ≤ 640 mg
